Assay results from patent publication US8952024B2, “Herbicidal pyrimidone derivatives” (E I du Pont de Nemours and Company, priority 2009, dated 2015).

Tests used:
Test in all cases: Test A pre-/postemergence plant response
Type in all cases: in vivo
[1] = test system: barnyardgrass (Echinochloa crus-galli)
Description: (§1) Seeds of barnyardgrass (Echinochloa crus-galli), large crabgrass (Digitaria sanguinalis), giant foxtail (Setaria faberii), morningglory (Ipomoea spp.), pigweed (Amaranthus retroflexus), velvetleaf (Abutilon theophrasti), wheat (Triticum aestivum) and corn (Zea mays) were planted into a blend of loam soil and sand and treated preemergence with a directed soil spray using test chemicals formulated in a non-phytotoxic solvent mixture which included a surfactant. At the same time these species were also treated with postemergence applications of test compounds formulated in the same manner.
(§2) Plants ranged in height from two to ten cm and were in the one- to two-leaf stage for the postemergence treatment. Treated plants and untreated controls were maintained in a greenhouse for approximately ten days, after which time all treated plants were compared to untreated controls and visually evaluated for injury. Plant response ratings, summarized in Table A, are based on a 0 to 100 scale where 0 is no effect and 100 is complete control. A dash (-) response means no test result.

corn (Zea mays) = test system: corn (Zea mays)
Description: as §1, §2

[2] = test system: giant foxtail (Setaria faberii)
Description: as §1, §2

[3] = test system: large crabgrass (Digitaria sanguinalis)
Description: as §1, §2

[4] = test system: morningglory (Ipomoea spp.)
Description: as §1, §2

[5] = test system: pigweed (Amaranthus retroflexus)
Description: as §1, §2

[6] = test system: velvetleaf (Abutilon theophrasti); conditions: for Velvetleaf plant response rating: visual injury, 0 to 100 scale (0 no effect, 100 complete control)
Description: as §1, §2

[7] = test system: wheat (Triticum aestivum); conditions: for Wheat plant response rating: visual injury, 0 to 100 scale (0 no effect, 100 complete control)
Description: as §1, §2

[8] = Postemergence, 125 g ai/ha, 0 to 100 scale where 0 is no effect and 100 is complete control
[9] = Postemergence, 500 g ai/ha, 0 to 100 scale, 0 = no effect, 100 = complete control, approx. ten days
[10] = Preemergence, 125 g ai/ha, 0 to 100 scale, 0 = no effect, 100 = complete control
[11] = Preemergence, 500 g ai/ha, visual injury, 0 to 100 scale (0 no effect, 100 complete control), approx. ten days
[12] = Preemergence, 500 g ai/ha, 0 to 100 scale, 0 = no effect, 100 = complete control
[13] = Postemergence, 500 g ai/ha, visual injury, 0 to 100 scale (0 no effect, 100 complete control), approx. ten days
[14] = Postemergence, 500 g ai/ha, approx. ten days

Compound | Plant response rating, Barnyardgrass [1, 8] | Plant response rating, Barnyardgrass [1, 9] | Plant response rating, Barnyardgrass [1, 10] | Plant response rating, Barnyardgrass [1, 11] | Plant response rating, Corn (corn (Zea mays); [8]) | Plant response rating, Corn (corn (Zea mays); [10]) | Plant response rating, Foxtail, Giant [2, 8] | Plant response rating, Foxtail, Giant [2, 10] | Plant response rating, Crabgrass, Large [3, 8] | Plant response rating, Crabgrass, Large [3, 10] | Plant response rating, Morningglory [4, 8] | Plant response rating, Morningglory [4, 10] | Plant response rating, Pigweed [5, 8] | Plant response rating, Pigweed [5, 10] | Plant response rating, Velvetleaf [6, 8] | Plant response rating, Velvetleaf [6, 10] | Plant response rating, Velvetleaf [6, 12] | Plant response rating, Wheat [7, 8] | Plant response rating, Wheat [7, 10] | Plant response rating, Wheat [7, 12] | other results
CCCn1c(-c2ccc3c(c2)OCCO3)ncc(C(=O)C2=C(O)CCCC2=O)c1=O [Compound 149] | 70 | 90 | 20 | 50 | 0 | 0 | 60 | 10 | 40 | 30 | 100 | 0 | 70 | 80 | 100 | 40 | 70 | 20 | 0 | 20 | Plant response rating, Corn (corn (Zea mays); [9]): 30; Plant response rating, Corn (corn (Zea mays); [11]): 20; Plant response rating, Foxtail, Giant [2, 9]: 80; Plant response rating, Foxtail, Giant [2, 11]: 60; Plant response rating, Crabgrass, Large [3, 9]: 70; Plant response rating, Crabgrass, Large [3, 11]: 80; Plant response rating, Morningglory [4, 9]: 100; Plant response rating, Morningglory [4, 11]: 40; Plant response rating, Pigweed [5, 9]: 100; Plant response rating, Pigweed [5, 11]: 100; Plant response rating, Velvetleaf [6, 9]: 100; Plant response rating, Wheat [7, 9]: 50
CCCn1c(-c2ccc3ccccc3c2)ncc(C(=O)C2=C(O)CCCC2=O)c1=O [Compound 150] | 40 | 80 | 0 | 0 | 0 | 0 | 40 | 0 | 20 | 0 | 100 | 0 | 30 | 0 | 50 | 0 | 0 | 0 | 0 | 0 | Plant response rating, Corn (corn (Zea mays); [9]): 0; Plant response rating, Corn (corn (Zea mays); [11]): 0; Plant response rating, Foxtail, Giant [2, 9]: 70; Plant response rating, Foxtail, Giant [2, 11]: 0; Plant response rating, Crabgrass, Large [3, 9]: 50; Plant response rating, Crabgrass, Large [3, 11]: 10; Plant response rating, Morningglory [4, 9]: 100; Plant response rating, Morningglory [4, 11]: 0; Plant response rating, Pigweed [5, 9]: 60; Plant response rating, Pigweed [5, 11]: 0; Plant response rating, Velvetleaf [6, 9]: 90; Plant response rating, Wheat [7, 9]: 20
O=C1CCCC(O)=C1C(=O)c1cnc(-c2ccccc2)n(C2CCCCCCCCCCC2)c1=O [Compound 165] | 0 |  | 0 |  | 0 | 0 | 20 | 0 | 20 | 0 | 50 |  | 80 | 0 | 100 | 0 | 0 | 0 | 0 | 0 | Barnyardgrass plant response rating [1, 13]: 80; Plant response rating, Barnyardgrass [1, 12]: 0; Corn plant response rating (corn (Zea mays); [13]): 30; Plant response rating, Corn (corn (Zea mays); [12]): 0; Foxtail, Giant plant response rating [2, 13]: 30; Plant response rating, Foxtail, Giant [2, 12]: 0; Crabgrass, Large plant response rating [3, 13]: 50; Plant response rating, Crabgrass, Large [3, 12]: 0; Morningglory plant response rating [4, 13]: 100; Plant response rating, Morningglory [4, 12]: 0; Pigweed plant response rating [5, 13]: 100; Plant response rating, Pigweed [5, 12]: 0; Velvetleaf plant response rating [6, 14]: 100; Wheat plant response rating [7, 14]: 0
Cc1ccc(-n2c(-c3cccc(F)c3)ncc(C(=O)C3=C(O)CCCC3=O)c2=O)cc1 [Compound 202] | 90 |  | 20 |  | 10 | 20 | 80 | 50 | 70 | 50 | 100 | 0 | 100 | 90 | 100 | 70 | 100 | 20 | 0 | 40 | Barnyardgrass plant response rating [1, 13]: 100; Plant response rating, Barnyardgrass [1, 12]: 100; Corn plant response rating (corn (Zea mays); [13]): 30; Plant response rating, Corn (corn (Zea mays); [12]): 40; Foxtail, Giant plant response rating [2, 13]: 100; Plant response rating, Foxtail, Giant [2, 12]: 100; Crabgrass, Large plant response rating [3, 13]: 100; Plant response rating, Crabgrass, Large [3, 12]: 100; Morningglory plant response rating [4, 13]: 100; Plant response rating, Morningglory [4, 12]: 100; Pigweed plant response rating [5, 13]: 100; Plant response rating, Pigweed [5, 12]: 100; Velvetleaf plant response rating [6, 14]: 100; Wheat plant response rating [7, 14]: 50
